For data set [1], the system named is Escherichia coli (ATCC 25922). Nature of the data set: Antimicrobial assay, macrodilution broth. The class given is cell-based. Particulars: Escherichia coli (25922); for 50% Minimal inhibitory concentration: 50% inhibition of growth; for 100% Minimal inhibitory concentration: complete inhibition of growth. Here is the method:
(§1) The antimicrobial activities of magainin analogues were assayed by macrodilution broth procedure of Jones et al (Jones, R. N., Barry, A. L., Gaven, T. L. and Washington, J. A. in "Manual of Clinical Microbiology", Lennette, D. H. Balows, A., Hausler, W. J. and Shadomy, H. J., eds; fourth edition, American Society for Microbiology, Washington, D.C., 1985) with modifications. Different concentrations of peptides were added to 2 ml of trypticase soy broth (BBL) containing the inocula of the test organisms adjusted to 10^5 and 10^6 CFU/ml. Microbial growth was determined by the increase in OD600, after incubation of the tubes at 35° C. for 6-9 h depending on the growth rate. […] The 50% minimal inhibitory concentration was determined from the plots of growth vs concentration of peptide.

Data set [2] concerns Klebsiella pneumoniae (ATCC 13883). Put plainly: Antimicrobial assay, macrodilution broth. As to conditions: Klebsiella pneumoniae (13883); for 50% Minimal inhibitory concentration: 50% inhibition of growth; for 100% Minimal inhibitory concentration: complete inhibition of growth. The class given is cell-based. Here is the method: as §1
The test system of data set [3] is Pseudomonas aeruginosa (ATCC 27853). Put plainly: Antimicrobial assay, macrodilution broth. Format: cell-based. As to conditions: Pseudomonas aeruginosa (27853); for 50% Minimal inhibitory concentration: 50% inhibition of growth; for 100% Minimal inhibitory concentration: complete inhibition of growth. Here is the method:
as §1

The subject of data set [4] is Staphylococcus aureus (ATCC 25923) beta-lactamase(-). Put plainly: Antimicrobial assay, macrodilution broth. The class given is cell-based. Particulars: Staphylococcus aureus (25923) beta-lactamase(-); for 50% Minimal inhibitory concentration: 50% inhibition of growth; for 100% Minimal inhibitory concentration: complete inhibition of growth. Here is the method: as §1

Data set [5] concerns Staphylococcus aureus (ATCC 29213) beta-lactamase(+). Nature of the data set: Antimicrobial assay, macrodilution broth. As to conditions: Staphylococcus aureus (29213) beta-lactamase(+); for 50% Minimal inhibitory concentration: 50% inhibition of growth; for 100% Minimal inhibitory concentration: complete inhibition of growth. Format: cell-based. Here is the method:
as §1

Data set [6] relates to Streptococcus agalactiae (ATCC 12386). Nature of the data set: Antimicrobial assay, macrodilution broth. Format: cell-based. As to conditions: Streptococcus agalactiae (12386); for 50% Minimal inhibitory concentration: 50% inhibition of growth; for 100% Minimal inhibitory concentration: complete inhibition of growth. Here is the method:
as §1

The test system of data set [7] is Streptococcus faecalis (ATCC 29212). Nature of the data set: Antimicrobial assay, macrodilution broth. The class given is cell-based. As to conditions: Streptococcus faecalis (29212); for 50% Minimal inhibitory concentration: 50% inhibition of growth; for 100% Minimal inhibitory concentration: complete inhibition of growth. Here is the method:
as §1

In data set [8] the test system is Gram-positive and Gram-negative bacteria. Put plainly: Antimicrobial assay, overall statements. The class given is cell-based. Here is the method: as §1
Data set [9] in a line: Circular dichroic measurements. Format: physicochemical.
The next data set relates to human erythrocyte. Nature of the data set: Erythrocyte hemolysis assay. The class given is cell-based. Here is the method:
To 75×12 mm borosilicate test tubes containing a predetermined amount of dried peptide in duplicate, 2.5 ml of diluted human erythrocyte suspension (10%, v/v) in isotonic phosphate-buffered saline was added. After gentle mixing and incubation for 10 min at 37° C., tubes were centrifuged at 3000×g for 10 min. The supernatant was separated from cells and debris, diluted if necessary, and OD350 measured. 100% hemolysis was obtained by using 0.1% Triton X-100.

The mark [10] stands for this setting: 40% CF3CH2OH (trifluoroethanol).

Where no end group is shown, it is not given here. Some results are limits rather than exact numbers.

On to “Ac-GIGKFLHAAKKFAKAFVAEIMNS-NH2 [analogue C]”, for which the “50% Minimal inhibitory concentration” value in data set [1] is 10 µg/mL; in data set [2], 60 µg/mL; in [3] it was greater than 100 µg/mL; in data set [4], 10 µg/mL; in [5], 7.5 µg/mL; in data set [6], 0.5 µg/mL. In addition, the “50% Minimal inhibitory concentration” value in data set [7] came out at 5 µg/mL. Moreover, the “100% Minimal inhibitory concentration” value in data set [1] is 25 µg/mL; in data set [2], 100 µg/mL; in data set [3], greater than 100 µg/mL; in [4], 25 µg/mL; in data set [5] it was 25 µg/mL; in data set [6] it was 1 µg/mL. Moreover, the “100% Minimal inhibitory concentration” value in [7] is 25 µg/mL. In addition, the “growth inhibition of both Gram-positive and Gram-negative bacteria (in words)” value (shortened to “growth inhibition”) in data set [8] is given as “active”. Besides, in data set [8] (effect of acetylation of the alpha-amino terminus, versus analogue B), the “growth inhibitory activity toward Gram-negative bacteria” value is on record as “significantly reduced”. In addition, the “% structure calculated from CD spectra, alpha-helix” value in [9] (50 mM K-phosphate, pH7) is given as 0%; in [9] (setting [10]), 61%. The “% structure calculated from CD spectra, beta-sheet” value (shortened to “% structure calculated … beta-sheet”) is given as 48% in data set [9] (50 mM K-phosphate, pH7) and 14% in [9] (setting [10]).

As for “GIGKFLHSAKKFAKAFVAEIMNS-NH2 [analogue F]”, the “50% Minimal inhibitory concentration” value stood at 1.2 µg/mL in data set [1]; 5 µg/mL in data set [2]; 25 µg/mL in data set [3]; 10 µg/mL in data set [4]; 5 µg/mL in data set [5]; 0.25 µg/mL in data set [6]. The “50% Minimal inhibitory concentration” value in data set [7] was determined as 10 µg/mL. Also, the “100% Minimal inhibitory concentration” value in [1] amounted to 5 µg/mL; in data set [2], 25 µg/mL; in data set [3], 50 µg/mL; in data set [4] it was 25 µg/mL; in data set [5], 10 µg/mL; in [6] it was 1 µg/mL. For the same substance, the “100% Minimal inhibitory concentration” value in data set [7] worked out at 25 µg/mL. Further, the “growth inhibition” value in data set [8] was “active”. The antimicrobial activity entry in [8] (effect of omission of replacement at Ser8) is listed as “only slightly”. The “% structure calculated from CD spectra, alpha-helix” value was 1% in data set [9] (50 mM K-phosphate, pH7) and 63% in data set [9] (setting [10]). The “% structure calculated … beta-sheet” value was 46% in [9] (50 mM K-phosphate, pH7) and 6% in [9] (setting [10]). The “hemolytic activity (in words, comparative)” value in the data set on human erythrocyte was “lower hemolytic activity”.

With “GIGKFLHAAKKFAKAFVAEIMNS-NH2 [analogue B]”, the “50% Minimal inhibitory concentration” value came out at 1.2 µg/mL in data set [1]; 5 µg/mL in data set [2]; 15 µg/mL in data set [3]; 5 µg/mL in data set [4]; 5 µg/mL in data set [5]; 0.25 µg/mL in [6]. Also, the “50% Minimal inhibitory concentration” value in [7] was determined as 5 µg/mL. Also, the “100% Minimal inhibitory concentration” value is 2.5 µg/mL in [1]; 10 µg/mL in [2]; 25 µg/mL in data set [3]; 10 µg/mL in [4]; 10 µg/mL in data set [5]; 1 µg/mL in data set [6]. Besides, the “100% Minimal inhibitory concentration” value in data set [7] turned out to be 10 µg/mL. Besides, the “growth inhibition” value in data set [8] is given as “active”. In addition, the “% structure calculated from CD spectra, alpha-helix” value is on record as 2% in data set [9] (50 mM K-phosphate, pH7) and 61% in data set [9] (setting [10]). For the same substance, the “% structure calculated … beta-sheet” value in [9] (50 mM K-phosphate, pH7) was 44%; in data set [9] (setting [10]) it was 9%.

As to “GIGKFLHSAGKFGKAFVGEIMKS [Magainin 1, reference compound]”, the “50% Minimal inhibitory concentration” value in data set [1] was 100 µg/mL; in [2] it was 100 µg/mL; in data set [3] it was 430 µg/mL; in data set [4], 360 µg/mL; in [5], 500 µg/mL; in [6], 60 µg/mL. The “50% Minimal inhibitory concentration” value in data set [7] is 360 µg/mL. Further, the “100% Minimal inhibitory concentration” value is 250 µg/mL in data set [1]; 250 µg/mL in data set [2]; greater than 500 µg/mL in data set [3]; greater than 500 µg/mL in [4]; greater than 500 µg/mL in data set [5]; 75 µg/mL in [6]. Further, the “100% Minimal inhibitory concentration” value in data set [7] is greater than 500 µg/mL. Moreover, the “% structure calculated from CD spectra, alpha-helix” value in data set [9] (50 mM K-phosphate, pH7) is reported as 0%; in data set [9] (setting [10]) it was 24%. Further, the “% structure calculated … beta-sheet” value is listed as 44% in data set [9] (50 mM K-phosphate, pH7) and 37% in data set [9] (setting [10]).
